Tests used:
Renca mouse tumour cells = assay: Tumour growth studies in Renca, a murine syngeneic renal carcinoma tumour model; type: in vivo; settings: Balb/C mice, Renca s.c., vs 0.5% methylcellulose
Procedure: Experiments were conducted on female mice (Balb/C genotype, at least 5 weeks old). Renca mouse tumour cells (Cancer Chemother Pharmacol. 1995; 36 (1): 7-12) were kindly provided by Dr. T. Fujioka at Department of Urology, Iwate Medical University School of Medicine. Renca mouse tumour cells (5×10^4) were implanted subcutaneously in the flank of mice on day 0. Mice were treated with either drug vehicle (0.5% methylcellulose), the compound of Example 3 (0.3 mg/kg once a week) or the compound of Example 4 (3 mg/kg once a week) administered orally (p. o.) on days 1, 8, and 15. Tumour volumes were assessed at least twice weekly by bilateral vernier caliper measurements.
Tumour growth inhibition from the start of treatment was assessed by comparison of the differences in tumour growth rate between control and the compound of Example 3 treated groups, as shown in FIG. 9.
Tumour growth inhibition from the start of treatment was assessed by comparison of the differences in tumour growth rate between control and the compound of the Example 4 treated groups, as shown in FIG. 10.

CT26 mouse tumour cells = assay: Survival studies in CT26, a murine syngeneic colon carcinoma tumour model; type: in vivo; settings: Balb/C mice, CT26 s.c., vs control or RT
Procedure: Experiments were conducted on female mice (Balb/C genotype, at least 5 weeks old). CT26 mouse tumour cells (CRL-2638) were purchased from ATCC. CT26 mouse tumour cells (1×10^6) were implanted subcutaneously in the flank of mice on day 0. Mice in radiotherapy alone (RT) group and combination group were anesthetized and received radiation therapy (2 Gy) at days 7, 8, 9, 10, and 11. Mice in combination group were also treated with a compound of Example 3 (30 mg/kg once a week) administered orally (p.o.) or Example 4 (5 mg/kg once a week) administered intravenously (i. v.) on days 7, 14, 22, and 27. Tumour volumes were assessed at least twice weekly by bilateral vernier caliper measurements. Survival period was determined by the time taken for tumours to reach 4 times the volume at the time of treatment.

Compound: CCC[C@@H](CCO)Nc1nc(N)nc(C)c1Cc1ccc(CN(CC(=O)O)CC(F)F)cc1OC [Example 3, (S)-2-((4-((2-amino-4-(1-hydroxyhexan-3-ylamino)-6-methylpyrimidin-5-yl)methyl)-3-methoxybenzyl)(2,2-difluoroethyl)amino)acetic acid]
- Tumour growth inhibition (Renca mouse tumour cells; 0.3 mg/kg once a week p.o. on days 1, 8, 15, FIG. 9): inhibited tumour growth
- Survival period (time for tumours to reach 4 times the volume at treatment) (CT26 mouse tumour cells; RT 2 Gy days 7-11 plus 30 mg/kg once a week p.o., FIG. 12): survived significantly longer

Compound: CCC[C@@H](CCO)Nc1nc(N)nc(C)c1Cc1ccc(CN(CC(=O)O)CC(F)(F)F)cc1OC [Example 4, (S)-2-((4-((2-amino-4-(1-hydroxyhexan-3-ylamino)-6-methylpyrimidin-5-yl)methyl)-3-methoxybenzyl)(2,2,2-trifluoroethyl)amino)acetic acid]
- Tumour growth inhibition (Renca mouse tumour cells; 3 mg/kg once a week p.o. on days 1, 8, 15, FIG. 10): inhibited tumour growth
- Survival period (time for tumours to reach 4 times the volume at treatment) (CT26 mouse tumour cells; RT 2 Gy days 7-11 plus 5 mg/kg once a week i.v., FIG. 13): survived significantly longer

Reference: patent US10562861B2, “Carboxylic acid compounds” (Sumitomo Dainippon Pharma Co., Ltd., priority 2012, dated 2020)
